Data on two compounds can be found in patent US20060057101A1, “German cockroach attractant” (priority 2004, published 2006).

For assay [1], the system named is brownbanded cockroach males. The settings on record: cited from earlier work.
The subject of a further assay is male German cockroaches. Description: two-choice olfactometer behavioral assay. The class given is in vivo, Blattella germanica. Here is the method:
FIG. 3 is a graphic representation of behavioral responses of male German cockroaches to one female equivalent of a crude extract of many virgin females and to various doses of the synthetic pheromone, gentisyl quinone isovalerate. The pheromone was applied in 20 μl of methylene chloride to a filter paper disc and presented to single males acclimated in the two-choice olfactometer vs. a methylene chloride control filter paper. Behavioral response is defined as quiescent males that were activated and ran out of their cage. Each assay consisted of testing 10-16 males in individual olfactometers and the assays were replicated 3-18 times. The mean responses and SEM are indicated.
FIG. 4 is a graphic representation of behavioral responses of male German cockroaches to one female equivalent of a crude extract of many virgin females and to various doses of the synthetic pheromone, gentisyl quinone isovalerate. Procedures are as in FIG. 3, but reported is the latency in seconds before males left their cages.
The biological activity of extracts and fractions was assayed both behaviorally and with an electroantennogram (“EAG”). Schal et al., “Site of Pheromone Production in Female Supella longipalpa (F.) (Dictyoptera: Blattellidae): Behavioral, Electrophysiological, and Morphological Evidence,” Annals Entomol. Soc. Amer. 85:605-611 (1992), which is hereby incorporated by reference in its entirety. For behavioral assays a two-choice olfactometer was used. Liang et al., “Effects of Pheromone Concentration and Photoperiod on the Behavioral Response Sequence to Sex Pheromone in the Male Brown-Banded Cockroach, Supella longipalpa,” J. Insect Behavior 3:211-223 (1990), and Liang et al., “Volatile Sex Pheromone in the Female German Cockroach,” Experientia 49:324-328 (1993a), which are hereby incorporated by reference in their entirety. Briefly, a straight Plexiglas tube (55 cm long and 3 cm ID) was divided along 15 cm of its upwind end and air was drawn through it at 20 cm/min. […] The percentage of insects running upwind and the latency, in seconds, before they responded were recorded.

supellapyrone: in assay [1] (all treatments, field traps), the “increase in number of adult males trapped relative to respective controls” value is on record as 6-28 times. Besides, the “attractiveness to males in the field” value in assay [1] (field, jar traps) is “highly attractive”.

As to `CC(C)CC(=O)OCC1=CC(=O)C=CC1=O` [synthetic pheromone, gentisyl quinone isovalerate], in the assay on male German cockroaches (10-100 ng of the pheromone on filter paper, FIG. 3), the “males responding (quiescent males activated and running out of their cage)” value is “More than 60%”. Moreover, the “latency of the male response before leaving cage” value in the assay with male German cockroaches (doses between 10 ng and 1 μg, FIG. 4) is reported as “shortest latency”. Moreover, the “dose-response of male behavioral response” value with male German cockroaches (various doses on filter paper, FIG. 3) is recorded as “clear dose-response”.
